Results reported in article PMC9964544, “Evidence of Insulin-Sensitizing and Mimetic Activity of the Sesquiterpene Quinone Avarone, a Protein Tyrosine Phosphatase 1B and Aldose Reductase Dual Targeting Agent from the Marine Sponge Dysidea avara” (Pharmaceutics, 2023).
“Also recorded” adds a separate entry of the source.

Assays:
[1] = system: human leukemia monocytic cells (THP-1); parameters: method as in PMID 32075136; conditions: ref [19]; cited from earlier work
TC-PTP = biological target: T1, TC-PTP (Homo sapiens, UniProt P17706); assay: TC-PTP inhibition (IC50), specificity of avarone; type: biochemical
T1 sequence (P17706 1-415): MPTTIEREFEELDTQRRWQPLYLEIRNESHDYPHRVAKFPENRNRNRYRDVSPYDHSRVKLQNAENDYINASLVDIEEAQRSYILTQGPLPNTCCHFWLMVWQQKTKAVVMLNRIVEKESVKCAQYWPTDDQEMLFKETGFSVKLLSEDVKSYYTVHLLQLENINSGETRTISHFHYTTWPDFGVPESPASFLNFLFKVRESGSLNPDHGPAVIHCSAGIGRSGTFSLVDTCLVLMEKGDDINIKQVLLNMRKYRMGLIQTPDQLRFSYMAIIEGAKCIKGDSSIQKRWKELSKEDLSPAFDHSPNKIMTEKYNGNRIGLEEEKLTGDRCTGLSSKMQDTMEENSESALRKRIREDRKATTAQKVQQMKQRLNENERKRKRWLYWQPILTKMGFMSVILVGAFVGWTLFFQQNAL
Experimental: To evaluate the capacity of avarone to specifically target the PTP1B enzyme, we determined the IC50 value for TC-PTP, another member of the tyrosine phosphatase family (Figure S14). […] To confirm this hypothesis, the interaction mode of avarone with TC-PTP was analyzed by in silico docking analysis carried out using the crystallographic structure (7F5N) deposited in the PDB database.
Figure S13. Binding sites of avarone (2) identified by docking analyses. ( A), General view
of interaction sites of avarone on PTP1B surface. (B), detail showing the molecules of
avarone bound into the active site of PTP1B. The images were obtained using the UCSF
Figure S14. Determination of the IC50 values of avarone for PTP1B (A), and TC-PTP (B).

C2C12 cells = assay: Seahorse XFe96 Mito Stress Test in C2C12 cells; type: cell-based; conditions: C2C12 treated for 30 min
Experimental: C2C12 cells (3 × 10^4 cells/well) were placed in XFe96 cell culture plates. After 24 h of incubation at 37 °C, cell growth medium was substituted with an XF base medium supplemented with 2 mM glutamine, 1 mM sodium pyruvate, and 10 mM glucose, pH 7.4. The plate was then transferred in a non-CO2 incubator for 1 h at 37 °C to pre-equilibrate the cells before analysis. An XF Mito Stress Test was performed to assay the cells’ ability to exploit mitochondrial oxidative metabolism, according to the manufacturer’s instructions. The oxygen consumption rate (OCR) was evaluated after the injection of a sequence of compounds that interfere with the electron transport chain: oligomycin (1 μM), carbonyl cyanide-4 (trifluoromethoxy) phenylhydrazone (FCCP) (1 μM), and Rotenone/Antimycin A (0.5 μM). All data were normalized on the protein content of each well.
Figure 10 Results of Mito Stress Test assay. (A) C2C12 cells were subjected to Seahorse XFe96-Mito Stress Test analysis to evaluate oxygen consumption rate (OCR) in real time. OCR values were normalized on protein content. (B) Basal respiration, ATP-linked OCR, spare capacity, maximal respiration, and proton leak were calculated using data obtained from OCR plot after the administration of the adenosine triphosphate ATP synthase inhibitor oligomycin, the proton uncoupler carbonylcyanide p-trifluoromethoxyphenylhydrazone (FCCP), and the combination of the respiratory complex I inhibitor rotenone and the respiratory complex III inhibitor antimycin A. Each point reported in the OCR plot represents the medium value ± SEM obtained from independent replicates (n = 3 or 4). One-way ANOVA with Dunnett’s correction was used to assess differences in experimental features by using Prism 8 software (GraphPad). Statistical significance is annotated as follows: * p ≤ 0.01, ** p ≤ 0.001, *** p ≤ 0.0001, (t-test); ns, not significant; FC, fold change.

human recombinant AKR1B1 = biological target: T2, human recombinant AKR1B1 (Homo sapiens, UniProt P15121); assay: Kinetic characterization and reversibility of AKR1B1 inhibition (Morrison equation, tight binding); type: biochemical
T2 construct: made in house
Text: AKR1B1 activity measurements obtained at each substrate concentration were fitted by nonlinear regression analysis to the Morrison equation reported below (Equation (1)). (1) vi=1−([ET]+[I]+Kiapp)−([ET]+[I]+Kiapp)^2−4[ET][I]/2[ET]
This allowed the evaluation of Kiapp . In order to obtain the inhibition constants Ki (dissociation constant of the EI complex) and Ki′ , (dissociation constant of the EIS complex), the Kiapp values were plotted against substrate concentration and fitted by nonlinear regression analysis to the following equation:(2) Kiapp=([S]+ KM)/(KM/Ki+[S]/Ki′)
Panel A: the activity of the purified enzyme (10 mU) was measured at the indicated concentrations of avarone in the presence of the indicated L-idose concentrations. (B) Experimental data reported in (A) were fitted to the Morrison equation (see Materials and methods, Equation (1)).

CC1=CCC[C@H]2[C@](C)(CC3=CC(=O)C=CC3=O)[C@@H](C)CC[C@]12C [avarone (2), avarone]
cytotoxicity THP-1 [1]: not cytotoxic
IC50 (TC-PTP): 39200 nM
affinity for TC-PTP lower than that for PTP1B (TC-PTP; ratio of IC50 values TC-PTP / PTP1B): 5.8 fold
basal respiration (OCR) (C2C12 cells): does not alter basal respiration
maximal respiration (C2C12 cells): slightly increases; also recorded: increases
oxygen-dependent ATP production (C2C12 cells): does not impair the oxygen-dependent ATP production
proton leak rate (C2C12 cells): without enhancing the proton leak rate
spare capacity (C2C12 cells): slightly increases; also recorded: increases
type of AKR1B1 inhibition (human recombinant AKR1B1): “tight binding” inhibitor; also recorded: non-competitive mixed-type inhibitor
Ki' (dissociation constant of the EIS complex) AKR1B1 (human recombinant AKR1B1; L-idose substrate, tight binding non-competitive model): 55 ± 8 nM
Ki (human recombinant AKR1B1; L-idose substrate, tight binding non-competitive model, read-out: Ki (dissociation constant of the EI complex) AKR1B1): 410 ± 94 nM
